Laboratory results: patent US20240310360A1, “METHOD OF […] RESPONSE OF CELL GROUP TO TEST SUBSTANCE” (CANON KABUSHIKI KAISHA, priority 2023, published 2024)
Read-outs that look alike come from different tables or passages of the source.

Experiments:
[1] = system: PBMCs; assay: Autofluorescence imaging FAD/NADH ratio of PBMCs after antigen stimulation (Example 2); format: cell-based; details: peptide solution 10 nM, PBMCs without preculturing
Procedure: PBMCs having reactivity to a test substance that differs from the reactivity in Example 1 were used here. The PBMCs used here were manufactured by Cellular Technology Limited, and thawed by following a manual provided by the manufacturer. Unlike Example 1, preculturing was skipped and the PBMCs were immediately presented to a test for examining reactivity to a test substance.
The thawed PBMCs were suspended in the CTL-Test Medium at a cell concentration of 7.2×10^6 cells/mL, and 250 μL each was seeded in a 24-well plate. As the test substance, a peptide solution manufactured by Cellular Technology Limited, specifically, CMV pp65 (495-503) Peptide (having a peptide concentration of 10 nM) was used, and 250 μL of this peptide solution was added to each of the wells containing the cells.
As a control cell group to which no test substances were added, cells to which 250 μL each of CTL-Test Medium was added instead of a peptide solution were used. After antigen stimulation, the cells were left to stand for 1 hour to 24 hours in a 5% CO2 incubator. From each well, an entire amount of cell suspension solution was collected and subjected to 5 minutes of centrifugation at 300 G. After the centrifugation, a supernatant was removed and cell pellets were suspended in 1,000 μL of PBS. Further, the resultant cell suspension solution was diluted 5 times with the PBS. Then, 100 μL of the diluted cell suspension solution was seeded onto a cover glass part (having a diameter of 16 mm) of a 35-mm glass bottom dish, and was used for bright field observation and autofluorescence observation.
The subsequent bright-field image acquisition, autofluorescence image acquisition, extraction and analysis of the color information of the autofluorescence images were performed by the same methods as the methods in Example 1.

[2] = system: PBMCs; details: PBMCs used in Example 1; confirmed in advance by the manufacturer; cited from earlier work
[3] = system: PBMCs; details: PBMCs used in Example 2; confirmed in advance by the manufacturer; cited from earlier work

## CMV pp65 (495-503) Peptide: peptide solution manufactured by Cellular Technology Limited; peptide that binds directly to an MHC (NLVPMVATV; UniProt P06725 495-503, looked up, fragment)
[1]; 1 hour of stimulation
  drop in FAD/NADH ratio compared to PBMCs with no test substance added: reproduced
[1]; 4 hours after stimulation
  drop in FAD/NADH ratio compared to PBMCs with no test substance added: hardly observed
[1]; period from 4 hours to 24 hours after stimulation
  drop in FAD/NADH ratio compared to PBMCs with no test substance added: substantially no drop
[2]
  reactivity of the PBMCs to the peptide (ELISpot test): react weakly
[3]
  reactivity of the PBMCs to the peptide (ELISpot test): react strongly
